Data: patent US20160176867A1, “MODIFIED BET-PROTEIN-INHIBITING DIHYDROQUINOXALINONES AND DIHYDROPYRIDOPYRAZINONES” (BAYER PHARMA AKTIENGESELLSCHAFT, priority 2013, published 2016)

Assays:
[1] = biological target: T1, BRD4 bromo domain 1 [BRD4(1)] (Homo sapiens, UniProt O60885); assay: BRD4/acetylated peptide H4 binding assay (TR-FRET), BRD4 bromo domain 1; settings: inhibition of BRD4(1)/Ac-H4 peptide interaction
T1 construct: N-terminally His6-tagged BRD4(1) (amino acids 67-152); made in house; host or cells: E. coli
Procedure, shortened: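 TR-FRET (665/620 nm ratio) measuring displacement of biotinylated tetra-acetylated H4 peptide from His6-BRD4(1) (aa 67-152, E. coli; typically 10 nM) at pH 7.5. Compound (11 concentrations, 0.1 nM–20 μM, duplicates) was preincubated 10 min at 22°C, then 1 h at 22°C and ≥3 h at 4°C; IC50 from 4-parameter fit normalized to DMSO and no-BRD4 controls.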

[2] = system: MOLM-13 cells; assay: Cell proliferation assay (alamarBlue), MOLM-13; format: cell-based; settings: Homo sapiens; MOLM-13 (acute myeloid leukaemia), 96 hours
Experimental: (§1) In accordance with the invention, the ability of the substances to inhibit cell proliferation was determined. Cell viability was determined by means of the alamarBlue® reagent (Invitrogen) in a Victor X3 Multilabel Reader (Perkin Elmer). The excitation wavelength was 530 nm and the emission wavelength […].
The MOLM-13 cells (DSMZ, ACC 554) were sown at a concentration of 4000 cells/well in 100 μl of growth medium (RPMI1640, 10% FCS) on 96-well microtitre plates.
(§2) After overnight incubation at 37° C., the fluorescence values were determined (CI values). Then the plates were treated with various substance dilutions (1E-5 M, 3E-6 M, 1E-6 M, 3E-7 M, 1E-7 M, 3E-8 M, 1E-8 M) and incubated at 37° C. over 96 hours (MOLM-13, B16F10, CHL-1 cells) or 120 hours (MOLP-8 cells). Subsequently, the fluorescence values were determined (CO values). For the data analysis, the CI values were subtracted from the CO values and the results were compared between cells which had been treated with various dilutions of the substance or only with buffer solution. The IC50 values (substance concentration needed for 50% inhibition of cell proliferation) were calculated therefrom.

[3] = system: CHL-1 cells; assay: Cell proliferation assay (alamarBlue), CHL-1; format: cell-based; settings: Homo sapiens; CHL-1 (melanoma, BRAF wild-type), 96 hours
Experimental: as §1
The CHL-1 cells (ATCC, CRL-9446) were sown at a concentration of 1000 cells/well in 100 μl of growth medium (DMEM with glutamine, 10% FCS) on 96-well microtitre plates.
as §2

Row | SMILES | IC50 [1] [nM] | IC50 [2] [nM] | IC50 [3] [nM]
1 | COCCN1c2nc(Nc3cccc(S(=O)(=O)N4CCOCC4)c3)ccc2N(C)C(=O)C1C (racemic) [Example 49, 4-(2-methoxyethyl)-1,3-dimethyl-6-{[3-(morpholin-4-ylsulphonyl)phenyl]amino}-3,4-dihydropyrido[2,3-b]pyrazin-2(1H)-one] | 112 | 269 | 153
2 | COCCN1c2nc(Nc3cccc(S(=O)(=O)N4CCN(C)CC4)c3)ccc2N(C)C(=O)C1C (racemic) [Example 53, 4-(2-methoxyethyl)-1,3-dimethyl-6-({3-[(4-methylpiperazin-1-yl)sulphonyl]phenyl}-amino)-3,4-dihydropyrido-[2,3-b]pyrazin-2(1H)-one] | 151 | 565 | 179
3 | COCCN1c2nc(Nc3cccc(S(=O)(=O)N4CCOCC4)c3)ccc2N(C)C(=O)[C@H]1C (stereo in doubt) [Example 111, (3R)-4-(2-methoxyethyl)-1,3-dimethyl-6-{[3-(morpholin-4-ylsulphonyl)phenyl]amino}-3,4-dihydropyrido[2,3-b]pyrazin-2(1H)-one] | 75 | 223 | 85
4 | COc1ccc(C(=O)NC2CCN(C)CC2)cc1Nc1ccc2c(n1)N(C1CCOCC1)[C@H](C)C(=O)N2C [Example 16, 3-{[(3R)-1,3-Dimethyl-2-oxo-4-(tetrahydro-2H-pyran-4-yl)-1,2,3,4-tetrahydropyrido[2,3-b]pyrazin-6-yl]amino}-4-methoxy-N-(1-methylpiperidin-4-yl)benzamide] | 234 | 679 | 346
5 | CCNS(=O)(=O)c1cccc(Nc2ccc3c(n2)N(C2CCOCC2)[C@H](C)C(=O)N3C)c1 [Example 23, 3-{[(3R)-1,3-dimethyl-2-oxo-4-(tetrahydro-2H-pyran-4-yl)-1,2,3,4-tetrahydropyrido[2,3-b]pyrazin-6-yl]amino}-N-ethylbenzenesulphonamide] | 15 | 47 | 50
6 | C[C@@H]1C(=O)N(C)c2ccc(Nc3cccc(S(=O)(=O)N4CCCC4)c3)nc2N1C1CCN(C)CC1 [Example 24, (3R)-1,3-Dimethyl-4-(1-methylpiperidin-4-yl)-6-{[3-(pyrrolidin-1-ylsulphonyl)phenyl]amino}-3,4-dihydropyrido[2,3-b]pyrazin-2(1H)-one] | 16 | 20 | 13
7 | COc1ccc(S(=O)(=O)N2CCOCC2)cc1Nc1ccc2c(n1)N(C1CCN(C)CC1)[C@H](C)C(=O)N2C [Example 25, (3R)-6-{[2-Methoxy-5-(morpholin-4-ylsulphonyl)phenyl]amino}-1,3-dimethyl-4-(1-methylpiperidin-4-yl)-3,4-dihydropyrido[2,3-b]pyrazin-2(1H)-one] | 16 | 18 | 16
8 | C[C@@H]1C(=O)N(C)c2ccc(Nc3cccc(S(=O)(=O)NC4CC4)c3)nc2N1C1CCOCC1 [Example 26, N-Cyclopropyl-3-{[(3R)-1,3-dimethyl-2-oxo-4-(tetrahydro-2H-pyran-4-yl)-1,2,3,4-tetrahydropyrido[2,3-b]pyrazin-6-yl]amino}benzenesulphonamide] | 17 | 32 | 31
9 | C[C@@H]1C(=O)N(C)c2ccc(Nc3cccc(S(=O)(=O)N4CCCC4)c3)nc2N1C1CCOCC1 [Example 27, (3R)-1,3-Dimethyl-6-{[3-(pyrrolidin-1-ylsulphonyl)phenyl]amino}-4-(tetrahydro-2H-pyran-4-yl)-3,4-dihydropyrido[2,3-b]pyrazin-2(1H)-one] | 17 | 41 | 23
10 | COc1ccc(S(=O)(=O)N2CCOCC2)cc1Nc1ccc2c(n1)N(C1CCOCC1)[C@H](C)C(=O)N2C [Example 28, (3R)-6-{[2-Methoxy-5-(morpholin-4-ylsulphonyl)phenyl]amino}-1,3-dimethyl-4-(tetrahydro-2H-pyran-4-yl)-3,4-dihydropyrido[2,3-b]pyrazin-2(1H)-one] | 26 | 21 | 14
11 | C[C@@H]1C(=O)N(C)c2ccc(Nc3cccc(S(=O)(=O)N4CC(F)(F)C4)c3)nc2N1C1CCN(C)CC1 [Example 29, (3R)-6-({3-[(3,3-Difluoroazetidin-1-yl)sulphonyl]phenyl}amino)-1,3-dimethyl-4-(1-methylpiperidin-4-yl)-3,4-dihydropyrido[2,3-b]pyrazin-2(1H)-one] | 29 | 64 | 36
12 | COc1ccc(S(=O)(=O)N2CC3(COC3)C2)cc1Nc1ccc2c(n1)N(C1CCOCC1)[C@H](C)C(=O)N2C [Example 30, (3R)-6-{[2-Methoxy-5-(2-oxa-6-azaspiro[3.3]hept-6-ylsulphonyl)phenyl]amino}-1,3-dimethyl-4-(tetrahydro-2H-pyran-4-yl)-3,4-dihydropyrido[2,3-b]pyrazin-2(1H)-one] | 44 | 152 | 80
13 | C[C@@H]1C(=O)N(C)c2ccc(Nc3cccc(S(=O)(=O)NC4CCN(C)CC4)c3)nc2N1Cc1ccccc1 [Example 33, 3-{[(3R)-4-benzyl-1,3-dimethyl-2-oxo-1,2,3,4-tetrahydropyrido[2,3-b]pyrazin-6-yl]amino}-N-(1-methylpiperidin-4-yl)benzenesulphonamide] | 22 | 16 | 13
14 | C[C@@H]1C(=O)N(C)c2ccc(Nc3cccc(S(=O)(=O)N4CCN(CC(F)(F)F)CC4)c3)nc2N1C1CCOCC1 [Example 37, (3R)-1,3-dimethyl-4-(tetrahydro-2H-pyran-4-yl)-6-[(3-{[4-(2,2,2-trifluoroethyl)piperazin-1-yl]sulphonyl}phenyl)-amino]-3,4-dihydropyrido-[2,3-b]pyrazin-2(1H)-one] | 28 | 74 | 53
15 | C[C@@H]1C(=O)N(C)c2ccc(Nc3cccc(S(=O)(=O)N[C@H]4CC[C@H](N5CCN(CC6CC6)CC5)CC4)c3)nc2N1Cc1ccccc1 [Example 38, 3-{[(3R)-4-benzyl-1,3-dimethyl-2-oxo-1,2,3,4-tetrahydropyrido[2,3-b]pyrazin-6-yl]amino}-N-{trans-4-[4-(cyclopropyl-methyl)piperazin-1-yl]cyclohexyl}-benzenesulphonamide] | 19 | 20 | 19
16 | CNS(=O)(=O)c1cccc(Nc2ccc3c(n2)N(C2CCOCC2)[C@H](C)C(=O)N3C)c1 [Example 39, 3-{[(3R)-1,3-dimethyl-2-oxo-4-(tetrahydro-2H-pyran-4-yl)-1,2,3,4-tetrahydropyrido[2,3-b]pyrazin-6-yl]amino}-N-methylbenzenesulphon-amide] | 38 | 90 | 63
17 | COc1ccc(S(=O)(=O)N2CCN(C)CC2)cc1Nc1ccc2c(n1)N(C1CCOCC1)[C@H](C)C(=O)N2C [Example 40, (3R)-6-({2-methoxy-5-[(4-methylpiperazin-1-yl)sulphonyl]phenyl}-amino)-1,3-dimethyl-4-(tetrahydro-2H-pyran-4-yl)-3,4-dihydropyrido[2,3-b]pyrazin-2(1H)-one] | 43 | 98 | 56
18 | C[C@@H]1C(=O)N(C)c2ccc(Nc3cccc(S(=O)(=O)N(C)C)c3)nc2N1C1CCN(C)CC1 [Example 41, 3-{[(3R)-1,3-dimethyl-4-(1-methylpiperidin-4-yl)-2-oxo-1,2,3,4-tetrahydropyrido[2,3-b]pyrazin-6-yl]amino}-N,N-dimethylbenzene-sulphonamide] | 20 | 22 | 21
19 | CC(C)N1c2nc(Nc3cccc(C(=O)N[C@H]4CC[C@H](N5CCN(CC6CC6)CC5)CC4)c3)ccc2N(C)C(=O)[C@H]1C [Example 79, N-{trans-4-[4-(cyclo-propylmethyl)piperazin-1-yl]cyclohexyl}-3-{[(3R)-4-isopropyl-1,3-dimethyl-2-oxo-1,2,3,4-tetrahydropyrido[2,3-b]pyrazin-6-yl]amino}benzamide] | 193 | 287 | 
20 | CC(C)N1c2nc(Nc3cccc(C(=O)N4CCN(CC5CC5)CC4)c3)ccc2N(C)C(=O)[C@H]1C [Example 88, (3R)-6-[(3-{[4-(cyclo-propylmethyl)piperazin-1-yl]carbonyl}phenyl)amino]-4-isopropyl-1,3-dimethyl-3,4-dihydropyrido[2,3-b]pyrazin-2(1H)-one] | 382 | 2080 | 
21 | Cc1nnc(-c2cccc(Nc3ccc4c(n3)N(C3CCOCC3)[C@H](C)C(=O)N4C)c2)o1 [Example 134, (3R)-1,3-Dimethyl-6-{[3-(5-methyl-1,3,4-oxadiazol-2-yl)phenyl]amino}-4-(tetrahydro-2H-pyran-4-yl)-3,4-dihydropyrido[2,3-b]pyrazin-2(1H)-one] | 179 | 546 | 
